Format in all cases: functional
The test system of assay [1] is Klebsiella pneumoniae. Description: Antibacterial activity against ESBL positive Klebsiella pneumoniae ATCC 700603 assessed as inhibition of bacterial growth by CLSI based micro broth double dilution method.
For assay [2], the system named is Staphylococcus epidermidis. Briefly: Antibacterial activity against methicillin-sensitive Staphylococcus epidermidis ATCC 12228 assessed as inhibition of bacterial growth by CLSI based micro broth double dilution method.
Assay [3] deals with Staphylococcus epidermidis. Description: Antibacterial activity against methicillin-sensitive Staphylococcus epidermidis 16-4 assessed as inhibition of bacterial growth by CLSI based micro broth double dilution method.
For assay [4], the system named is Streptococcus pyogenes. Briefly: Antibacterial activity against erythromycin-sensitive Streptococcus pyogenes ATCC 19615 assessed as inhibition of bacterial growth by CLSI based micro broth double dilution method.
For assay [5], the system named is Enterococcus faecalis. Description: Antibacterial activity against vancomycin-sensitive Enterococcus faecalis […] assessed as inhibition of bacterial growth by CLSI based micro broth double dilution method.
For assay [6], the system named is Klebsiella pneumoniae. Description: Antibacterial activity against ESBL negative Klebsiella pneumoniae 16-2 assessed as inhibition of bacterial growth by CLSI based micro broth double dilution method.
The test system of assay [7] is Streptococcus pneumoniae. Description: Antibacterial activity against erythromycin-resistant Streptococcus pneumoniae 12-3 assessed as inhibition of bacterial growth by CLSI based micro broth double dilution method.
Assay [8] concerns Staphylococcus aureus. Description: Antibacterial activity against methicillin-sensitive Staphylococcus aureus 16-1 assessed as inhibition of bacterial growth by CLSI based micro broth double dilution method.
In assay [9] the test system is Streptococcus pyogenes. Description: Potency index, ratio of telithromycin MIC to test compound MIC for antibacterial activity against erythromycin-resistant Streptococcus pyogenes 12-1 assessed as inhibition of bacterial growth by CLSI based micro broth double dilution method.
Assay [10] relates to Pseudomonas aeruginosa. Description: Antibacterial activity against Pseudomonas aeruginosa ATCC 27853 assessed as inhibition of bacterial growth by CLSI based micro broth double dilution method.
For assay [11], the system named is Enterococcus faecalis. Description: Antibacterial activity against vancomycin-resistant Enterococcus faecalis ATCC 51299 assessed as inhibition of bacterial growth by CLSI based micro broth double dilution method.
The test system of assay [12] is Staphylococcus aureus. Briefly: Antibacterial activity against methicillin-sensitive Staphylococcus aureus 15 assessed as inhibition of bacterial growth by CLSI based micro broth double dilution method.
The subject of assay [13] is Pseudomonas aeruginosa. Description: Antibacterial activity against Pseudomonas aeruginosa PAO1 assessed as inhibition of bacterial growth by CLSI based micro broth double dilution method.
Assay [14] relates to Escherichia coli. Description: Antibacterial activity against Escherichia coli 16-7 assessed as inhibition of bacterial growth by CLSI based micro broth double dilution method.
Assay [15] has as its system Enterococcus faecalis. Briefly: Antibacterial activity against vancomycin-sensitive Enterococcus faecalis 16-6 assessed as inhibition of bacterial growth by CLSI based micro broth double dilution method.
Assay [16] relates to Streptococcus pneumoniae. Briefly: Antibacterial activity against erythromycin-sensitive Streptococcus pneumoniae ATCC 49619 assessed as inhibition of bacterial growth by CLSI based micro broth double dilution method.
In assay [17] the test system is Staphylococcus aureus. Briefly: Antibacterial activity against methicillin-sensitive Staphylococcus aureus ATCC 29213 assessed as inhibition of bacterial growth by CLSI based micro broth double dilution method.
For assay [18], the system named is Escherichia coli. Briefly: Antibacterial activity against ESBL-positive Escherichia coli ATCC 35218 assessed as inhibition of bacterial growth by CLSI based micro broth double dilution method.
The test system of assay [19] is Escherichia coli. Briefly: Antibacterial activity against ESBL-negative Escherichia coli ATCC 25922 assessed as inhibition of bacterial growth by CLSI based micro broth double dilution method.
For assay [20], the system named is Pseudomonas aeruginosa. Description: Antibacterial activity against Pseudomonas aeruginosa 16-11 assessed as inhibition of bacterial growth by CLSI based micro broth double dilution method.
In assay [21] the test system is Streptococcus pyogenes. Briefly: Antibacterial activity against erythromycin-resistant Streptococcus pyogenes 12-1 assessed as inhibition of bacterial growth by CLSI based micro broth double dilution method.
Assay [22] has as its system Klebsiella pneumoniae. Briefly: Antibacterial activity against ESBL negative Klebsiella pneumoniae 7 assessed as inhibition of bacterial growth by CLSI based micro broth double dilution method.
The subject of assay [23] is Enterococcus faecalis. Description: Antibacterial activity against vancomycin-resistant Enterococcus faecalis ATCC 51575 assessed as inhibition of bacterial growth by CLSI based micro broth double dilution method.
Assay [24] relates to Streptococcus pneumoniae. Description: Potency index, ratio of telithromycin MIC to test compound MIC for antibacterial activity against erythromycin-resistant Streptococcus pneumoniae 12-3 assessed as inhibition of bacterial growth by CLSI based micro broth double dilution method.

Converted amounts (≈) assume the structure as drawn.

Take `CCCCN(CCCN1C(=O)O[C@]2(C)[C@@H](CC)OC(=O)[C@@](C)(F)C(=O)[C@H](C)[C@@H](O[C@@H]3O[C@H](C)C[C@H](N(C)C)[C@H]3O)[C@@](C)(OC)C[C@@H](C)C(=O)[C@H](C)[C@@H]12)c1ccnc2ccccc12`: the minimum inhibitory concentration (MIC) (usually the lowest concentration that inhibits growth of the organism) in [1] is 32 µg/mL (≈ 36.7 µM); in assay [2] it was 0.12 µg/mL (≈ 0.138 µM); in assay [3], 0.25 µg/mL (≈ 0.287 µM); in assay [4], 0.015 µg/mL (≈ 0.0172 µM); in assay [5], 0.03 µg/mL (≈ 0.0344 µM); in assay [6], > 32 µg/mL. Further, the MIC in assay [7] is ≤ 0.016 µg/mL; in assay [8], 0.12 µg/mL (≈ 0.138 µM); in assay [10] it was 32 µg/mL (≈ 36.7 µM); in assay [11], 1 µg/mL (≈ 1.15 µM); in [12] it was 0.06 µg/mL (≈ 0.0689 µM); in [13], 16 µg/mL (≈ 18.4 µM). The MIC is 32 µg/mL (≈ 36.7 µM) in assay [14]; 2 µg/mL (≈ 2.3 µM) in assay [15]; ≤ 0.016 µg/mL in assay [16]; 1 µg/mL (≈ 1.15 µM) in [17]; 32 µg/mL (≈ 36.7 µM) in assay [18]; 32 µg/mL (≈ 36.7 µM) in assay [19]. The minimal inhibitory concentration (MIC) is 16 µg/mL (≈ 18.4 µM) in assay [20], 2 µg/mL (≈ 2.3 µM) in assay [21], > 32 µg/mL in assay [22] and 1 µg/mL (≈ 1.15 µM) in assay [23]. Further, the Ratio in [9] is 32; in assay [24], 4.

Consider `CC[C@H]1OC(=O)[C@@](C)(F)C(=O)[C@H](C)[C@@H](O[C@@H]2O[C@H](C)C[C@H](N(C)C)[C@H]2O)[C@@](C)(OC)C[C@@H](C)C(=O)[C@H](C)[C@H]2N(CCCN(C(=O)CCc3ccccc3)c3cnc4ccccc4c3)C(=O)O[C@]12C`, for which the minimal inhibitory concentration (MIC) is > 32 µg/mL in assay [1]; 0.5 µg/mL (≈ 0.528 µM) in [2]; 4 µg/mL (≈ 4.22 µM) in assay [3]; 0.5 µg/mL (≈ 0.528 µM) in [4]; 0.5 µg/mL (≈ 0.528 µM) in [5]; > 32 µg/mL in assay [6]. The MIC was 0.06 µg/mL (≈ 0.0633 µM) in [7]; 1 µg/mL (≈ 1.06 µM) in assay [8]; > 32 µg/mL in assay [10]; > 32 µg/mL in [11]; 1 µg/mL (≈ 1.06 µM) in assay [12]; > 32 µg/mL in [13]. Also, the MIC was > 32 µg/mL in assay [14]; > 32 µg/mL in assay [15]; ≤ 0.016 µg/mL in assay [16]; 1 µg/mL (≈ 1.06 µM) in assay [17]; > 32 µg/mL in [18]; > 32 µg/mL in assay [19]. Besides, the MIC in assay [20] was > 32 µg/mL; in assay [21], 16 µg/mL (≈ 16.9 µM); in assay [22], > 32 µg/mL; in assay [23] it was > 32 µg/mL.

Regarding `CC[C@H]1OC(=O)[C@@](C)(F)C(=O)[C@H](C)[C@@H](O[C@@H]2O[C@H](C)C[C@H](N(C)C)[C@H]2O)[C@@](C)(OC)C[C@@H](C)C(=O)[C@H](C)[C@H]2N(CCCN(C(=O)/C=C/c3ccccc3)c3cnc4ccccc4c3)C(=O)O[C@]12C`, the MIC in [1] is 32 µg/mL (≈ 33.9 µM); in [2], 1 µg/mL (≈ 1.06 µM); in assay [3], 2 µg/mL (≈ 2.12 µM); in assay [4], 0.25 µg/mL (≈ 0.265 µM); in [5], 0.5 µg/mL (≈ 0.529 µM); in assay [6], > 32 µg/mL. The minimum inhibitory concentration (MIC) in [7] is 0.25 µg/mL (≈ 0.265 µM); in assay [8], 1 µg/mL (≈ 1.06 µM); in assay [10] it was > 32 µg/mL; in [11] it was > 32 µg/mL; in [12], 1 µg/mL (≈ 1.06 µM); in assay [13], > 32 µg/mL. In addition, the minimum inhibitory concentration (MIC) is > 32 µg/mL in [14]; > 32 µg/mL in [15]; ≤ 0.016 µg/mL in assay [16]; 1 µg/mL (≈ 1.06 µM) in assay [17]; > 32 µg/mL in assay [18]; > 32 µg/mL in [19]. For the same compound, the MIC in assay [20] was > 32 µg/mL; in assay [21], 8 µg/mL (≈ 8.46 µM); in assay [22], > 32 µg/mL; in assay [23] it was > 32 µg/mL.

Values taken from ChEMBL document CHEMBL5236651, “Synthesis and antibacterial activity of novel 2‑fluoro ketolide antibiotics with 11,12‑quinoylalkyl side chains” (2023).
